In patent US20250275993A1, “GLYCOSYLATION INHIBITORS AS THERAPEUTICS FOR STROKE” (The Regents of the University of California, priority 2022, published 2025):

How the values were obtained:
[1] = test system: dermal microvascular endothelial cells (hDMVECs); assay: hDMVEC proliferation assay; format: cell-based, human
Description: (§1) Proliferation assays with BCECs and BRECs were performed. Log-phase growing BCECs or BRECs (passage <10) were trypsinized, re-suspended and seeded in 96-well plates (no coating) in low-glucose DMEM supplemented with 10% bovine calf serum, 2 mM glutamine, and antibiotics (growth medium), at a density of 1200-1500 cells per well in 200 μl volume. All reagents were added at the indicated final concentrations. After 3-6 days, cells were incubated with AlamarBlue for 4 hrs. Fluorescence was measured at 530 nm excitation wavelength and 590 nm emission wavelength. The experiments were repeated at least three times. To create a hypoxic condition, cells were placed in a hypoxia incubator with a mixture of gas consisting of 1% O2, 5% CO2 and 94% N2. On each 96-well plate, untreated and VEGF-treated (10/ng/ml) wells were included to monitor plate-to-plate variations. 20% methanol or 0.05% DMSO served as negative controls. […] Human RMVECs and human adult DMVECs were split into Gelatin-coated 96 wells (2000 cells per well) in low glucose DMEM containing 10% FBS. 1200 cells/well was set up for proliferation assay in low glucose media containing 0.5% FBS. Data was collected at day 4 or 5. HUVEC (p7-10) were grown on gelatin-coated plate until it reached 70-80% confluency.
(§2) Proliferation assays with fibroblasts were done in low-glucose DMEM containing 1% FBS, with or without 10 ng/ml bFGF, or 100 ng/ml human EGF and the assay was ended at day 3. ARPE-19 cells were gently lifted with 0.025% trypsin and plated in RtEGM media (Clonetics) containing 2% FBS, L-glutamine, human bFGF and GA-1000. Once cells were attached to plates, serum-free RtEGM media was used to maintain the cultures. For proliferation assays, 1500 human RPE cells were plated into 96-well plates in low-glucose DMEM containing 1% FBS. A673, U87MG, Calu6 and AML12 cells were grown until confluent and were then harvested and re-suspended in appropriate assay media. […] Four days later, tumor cell growth was measured by the MTS assay (Promega, Madison, WI), a colorimetric assay that measures metabolic activity of viable cells. […]

α-glucosidase = α-glucosidase activity assay; format: biochemical, Saccharomyces cerevisiae; details: up to 2 mM
Description: a-mannosidase activity was measured using substrate p-nitrophenyl α-mannopyranoside (1 mM). Enzyme from Jack Bean (M7257) (final concentration of 0.077 U) was incubated at 37° C. in a final volume of 50 μl of 50 mM potassium phosphate buffer, pH 7.5. α-glucosidase was assayed with substrate p-nitrophenyl a-glucoside (7 mM). Enzyme from Saccharomyces cerevisiae-type 1 (Sigma, G5003) (final concentration of 0.1 U) was incubated at 37° C. in a final volume of 50 μl of PBS, pH 7.5. β-Glucosidase was assayed with substrate 4-nitrophenyl β-D-glucopyranoside (Roche). Enzyme from almond (Sigma, G0395) (final concentration of 0.002 U) was incubated at 37° C. in a final volume of 50 μl of PBS, pH 7.5 […]. The incubation was stopped by addition of an equal volume of acid-based stop solution (R&D systems, 895032). Enzymatic activity was measured at 405 nm. α-glucosidase from Saccharomyces cerevisiae type I (G5003) with p-nitrophenyl α-D-glucopyranoside (Sigma, N1377) as the substrate.

AML12 liver cells = assay: AML12 proliferation assay; format: cell-based, mouse
Description: as §2, with “media. For proliferation assays, cells were plated at the density of 1000-2000 cells/well in low-glucose DMEM containing 5% FBS or otherwise stated. Bovine pituitary cells (pituitary folliculostellate cells) were isolated as previously described. For proliferation assays with human epidermal keratinocytes, human DMVECs and human dermal fibroblast cells, 1000 cells/well were plated in low-glucose DMEM containing 1% FBS with or without various growth factors. The assay was ended at day 3 for bovine pituitary cells and at day 4 for all the other cell types.” for “media.”

Calu6 = Calu6 proliferation assay; format: cell-based; details: ManN
Description: as §2, with “media. For proliferation assays, cells were plated at the density of 1000-2000 cells/well in low-glucose DMEM containing 5% FBS or otherwise stated. Bovine pituitary cells (pituitary folliculostellate cells) were isolated as previously described. For proliferation assays with human epidermal keratinocytes, human DMVECs and human dermal fibroblast cells, 1000 cells/well were plated in low-glucose DMEM containing 1% FBS with or without various growth factors. The assay was ended at day 3 for bovine pituitary cells and at day 4 for all the other cell types.” for “media.”

HUVEC = HUVEC proliferation assay; format: cell-based, human
Description: as §1
On the day of the assay, cells were dissociated with 0.05% trypsin, which was neutralized with 0.5% FBS-containing EBM. Cells were briefly spun and then re-suspended in 0.5% FBS-media. Cells were counted and plated in 96-well, 1000 cells/well. Triplicate wells were used for each treatment. Data were collected at day 3, and then cells were fixed in 4% paraformaldehyde for 15 min before adding crystal violet. Cell-covered areas were quantified after taking pictures by Image J software.

ERK and AKT = assay: Western blot of ERK and AKT activation in HUVEC and hDMVECs; format: cell-based, human; details: 40 μM
Description: Cells were allowed to reach-80% confluency in 12-well plates. […] At various time points, plates were taken out of the incubator and kept on ice. Cell monolayers were first washed once with ice-cold PBS before lysis with 250 μI of Pierce RIPA buffer (ThermoFisher Scientific, Rockford, IL) or use 50 mM Tris-HCl (pH 7.6), 150 mM NaCl, 10% Glycerol, 1% NP-40 containing protease/Phosphatase inhibitor cocktail (100×) (Cell signaling, #5872). Lysates were collected and mixed with 4× Bolt LDS Sample Buffer (Novex, Carlsbad, CA) in the presence of Halt protease inhibitors and phosphatase inhibitor cocktail (ThermoFisher scientific, #NP0007). The samples were subjected to SDS-PAGE (Bolt 4-12% Bis-Tris Plus, Invitrogen) using Bolt MES SDS running buffer or NuPAGE 3-8% Tris-Acetate gel using Tris-Acetate SDS running buffer (Novex). HUVECs (passage 6-8) were plated in EBM-2 basal medium (Lonza) with 0.2% FBS. Following overnight culture, cells were serum-starved in EBM-2 medium for 4 hrs prior to treatment with 50 ng/ml of VEGF165 or vehicle controls for various lengths. Equal amounts of protein lysates were analyzed by SDS-PAGE and blotted with the indicated antibodies. Proteins were transferred using Tris-Glycine buffer with 20% Methanol (Proteonomics grade) (Apex BioResearch Products). […]

N[C@H](C=O)[C@@H](O)[C@H](O)[C@H](O)CO [ManN, 2-Amino-2-deoxy-D-mannose]
toxicity on hDMVECs ([1]; 5 mM ManN): minimal toxicity
hDMVECs growth, ManN by itself ([1]; ManN alone): stimulated
additivity with VEGF on hDMVEC proliferation ([1]; with VEGF): dose-dependent additivity with VEGF
effect on α-glucosidase (α-glucosidase): No effect
sensitivity of AML12 to ManN toxicity (AML12 liver cells; 5 mM level of ManN): most sensitive one
proliferation of AML12 (AML12 liver cells; alone or in combination with growth factors): no increases in proliferation
growth of Calu6 (Calu6): did not promote growth
toxicity on HUVEC (HUVEC; 5 mM ManN): minimal toxicity
HUVEC growth, ManN by itself (HUVEC; ManN alone): stimulated
additivity with VEGF on HUVEC proliferation (HUVEC; with VEGF): dose-dependent additivity with VEGF

O=C1N[C@@H]2[C@@H](O)[C@@H](O)[C@H](O)[C@@H](CO)N2C1=O [Kif, Kifunensine, reference compound]
activation of ERK and AKT in human ECs by glycosylation inhibitors (ERK and AKT): significantly activate ERK and AKT
